Read-outs that look alike come from different tables or passages of the source.
Columns and labels:
[1] = biological target: HIV-1 reverse transcriptase (HIV-1 M:B_HXB2R, UniProt P04585); assay: Inhibition of HIV-1 reverse transcriptase (TTP incorporation, poly[rA]-oligo[dT]12-18 primer-template); format: biochemical; conditions: for inhibition of reverse transcriptase activity (effect on reaction kinetics): at concentrations of up to 10,000 fmols
Protocol: (§1) Reverse transcriptase assays were performed using substantially purified HIV-1 reverse transcriptase and poly[rA]-oligo[dT]12-18 as primer-template. The reactions were carried out in a total volume of 10 μl; a 4.5 μl volume of the sample was mixed with an equal volume of a reaction mixture to provide a final concentration of 50 mM Tris (pH 8.5), 6 mM MgCl2, 10 mM dithiothreitol (DTT), 2.0 μg bovine serum albumin (BSA), 0.5 μCi TTP, 80 mM KCl, and 0.05% Triton X-100. The reaction was initiated by the addition of 1.0 μl of HIV reverse transcriptase (containing~1 ng protein; from American BioTechnology,Cambridge, Mass.; Cat. No. 26001). After 1 hour incubation at 37° C., the reaction was stopped by the addition of 5.0 μof stop buffer (50 mM EDTA+3% SDS). The reverse transcriptase products (polymerization products) were separated from the unincorporated label by chromatography on Sephadex G-25 (superfine) columns. The fractions corresponding to the void volume were collected and counted by scintillation counting.

[2] = test system: peripheral blood mononuclear cells; conditions: AIDS patients receiving 300 mg oral zidovudine; cited from earlier work
[3] = test system: peripheral blood mononuclear cells; assay: Intracellular zidovudine triphosphate in peripheral blood mononuclear cells of HIV-infected volunteers (reverse transcriptase bioassay); format: in vivo, human
Protocol: Peripheral blood mononuclear cell isolation. Heparinized blood from normal human volunteers or asymptomatic HIV seropositive individuals was diluted 1:1 with HBSS, layered onto LSM (Ficoll hypaque) and then separated by centrifugation for 30 min at 400×g. The mononuclear cell layer was removed, washed once with growth media, counted, and pelleted by centrifugation. The cells were then resuspended in growth medium (RPMI containing 10% fetal calf serum) and the residual erythrocytes lysed by the addition of 3 volumes of cold water for 30 seconds. Erythrocyte lysis was stopped by the addition of 1 volume of 0.6M sodium chloride, and the mononuclear cells were pelleted by centrifugation.
Uncultured peripheral blood mononuclear cells from zidovudine-treated patients were resuspended in 1 ml of media and transferred to a 1.5 ml centrifuge tube, spun 1 min at 14,000 rpm, the media removed, and pulsed again to allow removal of any residual media. The cells were extracted for at least 15 min with 200 μl of ice cold 70% methanol per 1×10^7 cells. The cell debris was removed by centrifugation for 15 min at 14,000 rpm and the supernate stored in -20° C. until required for analysis. Prior to use, the extracts were dried under vacuum and resuspended in 50 μl of 5 mM Tris-HCl buffer (pH 8.5); extracts from 0.5×10^7 CEM cells or 1×10^7 cultured peripheral blood mononuclear cells were reconstituted in 200 μl buffer.
as §1
The zidovudine-free peripheral blood mononuclear cells from each individual at baseline (untreated) served as the cell background to construct the standard curve for zidovudine triphosphate determination.
(§2) Individuals in this study were HIV-infected individuals recruited from an area clinic. […] CD4 and CD8 cell counts were determined from baseline samples.

[4] = test system: human immunodeficiency virus reverse transcriptase; conditions: cited from earlier work
CEM cells [5] = assay: Zidovudine triphosphate level in CEM cells by HPLC-RIA; format: in vitro ADME; conditions: 4 hr incubation with 1 μM zidovudine, n = 3
Protocol: (§3) One fraction was analyzed by HPLC and zidovudine metabolites were quantitated by usual radioisotopic methods.
(§4) Cell extracts were analyzed and quantified by using the different assays as described in Materials and Methods. Statistical parameters represent the standard deviation of the mean (δ) of three determinations of parallel samples.
CEM cells were extracted in the same manner as cultured peripheral blood mononuclear cell samples (see Materials and Methods). […] The samples were cleaned up using Waters Sep-pak C-18 cartridges. The cartridges were conditioned with 10% methanol and then rinsed with water. Each sample was applied separately and eluted with 50% methanol. The samples were vacuum desiccated to a volume under 500 μl and further purified with a 250 mm Whatman ODS-3 column. Buffer A was 35% methanol and buffer B was 50% methanol. The gradient was 15 min at 0% B followed by 20 min at 100% B with a flow rate of 0.5 ml/min and fractions collected every min. The fractions containing zidovudine were pooled and vacuum desiccated to dryness. […] The antibody was diluted 1:3 and preincubated with the sample 2 hours.

CEM cells [6] = assay: Zidovudine triphosphate level in CEM cells by HPLC-radioactive method; format: in vitro ADME; conditions: 4 hr incubation with 1 μM zidovudine, n = 1
Protocol: (§5) Preparation of cell extracts. […] The cell pellets were resuspended in 1 ml of residual media and layered onto 150 μl of nyosil oil, and spun through the oil. The media above the oil layer was removed, and any residual media was removed by rinsing the area above the oil layer by two gentle water washes. Finally, the oil was removed and the cells were extracted with 70% methanol+15 mM Tris-HCl buffer (pH 7.4) for at least 15 min on ice. The debris was removed by centrifugation and the samples stored at -20° C. until required.
as §3
(§6) Buffers used in the separation procedure were A--0.005M ammonium phosphate at pH 4.0+10% methanol and B--0.7M ammonium phosphate at pH 4.6+10% methanol.
as §4

CEM cells [7] = assay: Zidovudine triphosphate level in CEM cells by reverse transcriptase bioassay; format: in vitro ADME; conditions: 4 hr incubation with 1 μM zidovudine, n = 3
Protocol: as §5
Reverse transcriptase assays were performed using substantially purified HIV-1 reverse transcriptase and poly[rA]-oligo[dT]12-18 as primer-template. The reactions were carried out in a total volume of 10 μl; a 4.5 μl volume of the sample was mixed with an equal volume of a reaction mixture to provide a final concentration of 50 mM Tris (pH 8.5), 6 mM MgCl2, 10 mM dithiothreitol (DTT), 2.0 μg bovine serum albumin (BSA), 0.5 μCi TTP, 80 mM KCl, and 0.05% Triton X-100. […] The fractions corresponding to the void volume were collected and counted by scintillation counting.
as §3
Cell extracts were analyzed and quantified by using the different assays as described in Materials and Methods. […]

[8] = test system: peripheral blood mononuclear cells; assay: Phosphorylation of zidovudine in peripheral blood mononuclear cells in vitro; format: in vitro ADME, human; conditions: proliferating compared to resting cells; 1 μM [^3 H]zidovudine
Protocol: Culture of human peripheral blood mononuclear cells. The peripheral blood mononuclear cells were suspended in growth media and transferred to plastic tissue culture flasks. The monocyte/macrophage cells were allowed to adhere to the flask for at least 60 min after which the non-adherent cells comprises primarily of lymphocytes were transferred to a new flask. The cells were stimulated by addition of 5 μg/ml of PHA-P and 10 units/ml of IL-2 and incubated for 72 hours at 37° C. prior to use. Fresh media was added every 24 hours to maintain the IL-2 concentration. If quiescent cells were required the PHA-P and IL-2 were omitted and the cells were used the following day.
as §5, §6

[9] = Plasma zidovudine concentrations and pharmacokinetics in HIV-infected volunteers (RIA); format: in vivo, human; conditions: for concentration at 1 h: po; for AUC: read-out: AUC (area under the curve), median; for half-life: read-out: t1/2 (half life), median (converted)
Protocol: Pharmacokinetic studies in patients. To assess the utility and sensitivity of the bioassay of the invention in patients, a clinical study was performed. The study was approved by the Institutional Review Board of St. Jude Children's Research Hospital and informed consent was obtained from each individual according to institutional procedures.
as §2
Prior distributions for the parameters were assumed to be log normally distributed with known but independent variances (i.e., no parameter covariance) and were taken from previous studies in similar patients (Flether et al., Pharmacotherapy 12:429-434 (1992)).
Plasma samples were heat inactivated at 56° C. for 4 hours prior to assay. The samples were diluted to obtain values within a standard curve range of 10-200 ng/ml with 200 μl of sample. […] Five-hundred μl of a secondary antibody precipitating complex was added and incubated for 20 min at room temperature. The resultant mixtures were centrifuged, the supernate decanted, and the precipitate counted using an LKB gamma counter connected to an IBM PC computer with an RIA Calif. LC software program.

[10] = 10 to 500 fmol, no cell extract
[11] = spiked with extract of peripheral blood mononuclear cells (about 10^6 cells)
[12] = human, plasma, 100 mg single oral dose
[13] = human, plasma, 500 mg single oral dose

Compound: Cc1cn([C@H]2C[C@H](O)[C@@H](COP(=O)(O)O)O2)c(=O)[nH]c1=O [thymidine monophosphate (TMP), thymidine monophosphate]
- inhibition of reverse transcriptase activity (effect on reaction kinetics) [1]: did not affect the reaction kinetics

Compound: Cc1cn([C@H]2C[C@H](N=[N+]=[N-])[C@@H](COP(=O)(O)O)O2)c(=O)[nH]c1=O [zidovudine-MP]
- inhibition of reverse transcriptase activity (effect on reaction kinetics) [1]: did not affect the reaction kinetics

Compound: Cc1cn([C@H]2C[C@H](N=[N+]=[N-])[C@@H](CO[P@](=O)(O)O[P@](=O)(O)OP(=O)(O)O)O2)c(=O)[nH]c1=O [zidovudine triphosphate]
- zidovudine triphosphate level relative to the patent's results [2]: 10 -fold higher
- proportion of median plateau values ([3]; 500 mg vs 100 mg): 1.7
- time course of zidovudine triphosphate values ([3]; 1 to 6 hours after zidovudine): increased from 1 to 2 hours (Table 3 (below)) and then remained at a plateau value through 6 hours
- measurability of zidovudine triphosphate after zidovudine administration ([3]; 100 or 500 mg zidovudine): could be measured in all 12 volunteers
- Median Ratio (500/100) ([3]; 1 h): 8.4
- Median Ratio (500/100) ([3]; 2 h): 1.6
- Median Ratio (500/100) ([3]; 4 h): 1.5
- Median Ratio (500/100) ([3]; 6 h): 2.1
- % CV range of intracellular zidovudine triphosphate ([3]; after 100 or 500 mg zidovudine): 52-157%
- inhibition of HIV reverse transcriptase [4]: potent inhibitor
- reverse transcriptase chain termination [4]: causes reverse transcriptase chain termination
- Zidovudine Triphosphate (CEM cells [5]): 1.50 ± 0.65 pmol/10^6 cells
- coefficient of regression of linear inhibition kinetics [1, 10]: 0.99
- inhibition kinetics of HIV reverse transcriptase [1, 10]: linear inhibition kinetics
- R of linear inhibition kinetics [1, 11]: > 0.98
- inhibition kinetics of HIV reverse transcriptase [1, 11]: good linear kinetics
- Zidovudine Triphosphate (CEM cells [6]): 1.42 pmol/10^6 cells
- Zidovudine Triphosphate (CEM cells [7]): 1.39 ± 0.17 pmol/10^6 cells

Compound: Cc1cn([C@H]2C[C@H](N=[N+]=[N-])[C@@H](CO)O2)c(=O)[nH]c1=O [zidovudine, 3'-azido-3'-deoxythymidine]
- phosphorylation rate of zidovudine [8]: high phosphorylation rate
- Plasma Zidovudine ([9]; 100 mg single oral dose, 6 h, #ND = plasma zidovudine concentration below standard curve in 4 of 5 patients): ND#
- difference of CLo between dose groups ([9]; 100 mg vs 500 mg, p>0.2 by Mann-Whitney U test): not significantly different
- concentration at 1 h ([9]; human, plasma, 100 mg dose): 1.79 µM
- concentration at 1 h ([9]; human, plasma, 500 mg dose): 6.3 µM
- concentration at 2 h [9, 12]: 0.76 µM
- concentration at 4 h [9, 12]: 0.26 µM
- AUC [9, 12]: 1.2 µg·h/mL
- half-life [9, 12]: 1.29 h
- concentration at 2 h [9, 13]: 3 µM
- concentration at 4 h [9, 13]: 0.9 µM
- concentration at 6 h ([9]; human, plasma, 500 mg single oral dose, 6 h): 0.36 µM
- AUC [9, 13]: 4.2 µg·h/mL
- half-life [9, 13]: 1.07 h

— patent US5576177A, “Bioassay for reverse transcriptase inhibitors” (St. Jude Children's Research Hospital, priority 1994, dated 1996)
